The subject of one test is 41McisR. Briefly: Microculture tetrazolium (MTS) cell survival assay. To be noted: for resistance factor (IC50 resistant/IC50 sensitive): 41McisR/41M; for IC50: 24 hours incubation, MTS. It counts as cell-based. On the procedure: (§1) Cytotoxicity of the synthesized complexes was also tested by the MTS method^(21). Accordingly, the compounds were incubated for 24 hours with the corresponding cell lines and the cell survival in compound-treated cultures was evaluated.
(§2) The complexes were incubated for 24 hours with the above mentioned cell lines and the cell survival in compound-treated cultures was evaluated by the (microculture tetrazolium) MTS method as previously reported.

Another test concerns 41M. Briefly: Microculture tetrazolium (MTS) cell survival assay. It is filed as cell-based. To be noted: 24 hours incubation. As to the method:
as §1, §2

Another test deals with A2780cisR. Briefly: Microculture tetrazolium (MTS) cell survival assay. It is filed as cell-based. The settings on record: for IC50: 24 hours incubation, MTS; for resistance factor (IC50 resistant/IC50 sensitive): A2780cisR/A2780. On the procedure: as §1, §2
Another test deals with A2780. Briefly: Microculture tetrazolium (MTS) cell survival assay. The settings on record: 24 hours incubation. It is filed as cell-based. As to the method: as §1, §2
For the next test, the system named is CH1cisR. Description: Microculture tetrazolium (MTS) cell survival assay. It counts as cell-based. The settings on record: for IC50: 24 hours incubation, MTS; for resistance factor (IC50 resistant/IC50 sensitive): CH1cisR/CH1. On the procedure:
as §1, §2

The subject of another test is CH1. Briefly: Microculture tetrazolium (MTS) cell survival assay. To be noted: 24 hours incubation. It is filed as cell-based. On the procedure:
as §1, §2

The test system of the next test is calf thymus DNA. Briefly: DNA binding (calf thymus DNA platination). To be noted: for t1/2 half time of the binding to calf thymus DNA: 10 mM NaClO4, 37° C., ri = 0.08, differential pulse polarography; for ΔTm, 0.01M Na+ / ΔTm, 0.2 M / ΔΔεmax, maximum of the positive CD band at around 275 nm: rb = 0.05; for ΔΔεmax, maximum of the positive CD band at around 275 nm: difference between control and platinated DNA. On the procedure: The formation of calf thymus DNA platination was also examined. To this end, calf thymus DNA was incubated with different compounds (Table 3) in which the following parameters were determined: […]

The test system of a further test is C-26 cells. It counts as cell-based. The settings on record: C-26 cells, mean ± SD. On the procedure: (§3) A human ovarian carcinoma cell line (OV-1063), established at the Hadassah University hospital and human colon carcinoma cell line (C-26) were maintained in RPMI-1640 medium supplemented with 10% FCS, antibiotics and glutamine. All culture medium components were purchased from Biological Industries (Beit-HaEmek, Israel). Both cell lines were maintained at 37° C. in a water-jacketed CO2 incubator.
(§4) Cytotoxicity of the synthesized complexes was tested by the methylene blue (MB) staining assay^(19). A fixed number of exponentially growing cells in 200 μl medium were plated in 96-microwell, flat-bottomed plates. For each of the complexes tested, 4 well were used. Following 24 hr in culture, 20 μl of different concentration of the complexes were added to each well containing untreated cells. Normal saline was added to the controls. Cells were exposed to complexes for 4, 24, or 72 hr. At the end of exposure for a fixed time interval, the treated cells as well as parallel control cells were washed and incubation was continued in fresh medium until termination of the experiment. Following 72 hr of growth, cells were fixed by adding 50 μl of 2.5% of glutaraldehyde to each well for 15 min. Fixed cells were rinsed 10 times with fresh de-ionized water and once with borate buffer (0.1 M, pH=8.5), dried and stained with MB (100 μl of 1% solution in 0.1 M borate buffer, pH=8.5) for 1 hr at room temperature. Stained cells were rinsed thoroughly with de-ionized water to remove any non-cell-bound die and then dried. The MB bound to the fixed cells was extracted by incubation at 37° C. with 200 μl of 0.1N HCl for 1 hr, and the net optical density (OD) of the die in each well was determined by a plate spectrophotometer (Labsystems Multyskan BICHROMATIC, Finland) at 620 nm.

In another test the test system is OV-1063 cells. Briefly: Methylene blue (MB) assay of cell survival. It counts as cell-based, human. The settings on record: mean ± SD. As to the method: as §3, §4
Where [1] appears, read: 4 h exposure, read-out: IC50, 4 h.
The mark [2] stands for this setting: 24 h exposure, read-out: IC50, 24 h.
Setting [3] is: 72 h exposure, read-out: IC50, 72 h.
The mark [4] stands for this setting: listed as cis-[PtCl2(NH3)(pic)].
[5] abbreviates: listed as cis-[PtCl2(NH3)(pip)].

Like-named read-outs stand apart in the source and are kept apart here.

The IC50 is the midpoint of a concentration-inhibition curve. On to `C1CNCCN1.C1CNCCN1.Cl.[Cl][Pt][Cl]` [Complex 14, Trans-[PtCl2(piperazine)(piperazine)].HCl], for which the “resistance factor (IC50 resistant/IC50 sensitive)” value (“resistance factor” below) is recorded as 3.6 in the test with 41McisR, 2.5 in the test with A2780cisR and 2.0 in the test with CH1cisR. Further, the IC50 in the test with 41McisR was determined as 153 ± 10 µM; with 41M, 43 ± 3 µM; in the test on A2780cisR, 43 ± 3 µM; with A2780, 17 ± 3 µM; in the test on CH1cisR it was 53 ± 3 µM; in the test on CH1, 26 ± 2 µM.
Regarding `C1CNCCN1.Cl.N.[Cl][Pt][Cl]` [Complex 8, Trans-[PtCl2(NH3)(piperazine)].HCl], in the test with 41McisR, the “resistance factor” value was 3.0 and the midpoint of inhibition, the IC50, lay at 155 ± 12 µM. Also, in the test with 41M, half-maximal inhibition (IC50) required 52 ± 5 µM. Further, in the test on A2780cisR, the IC50 was found to be 44 ± 4 µM and the “resistance factor” value is listed as 8.8. This compound also yielded an IC50 in the test on A2780 of 5 ± 1 µM. For the same compound, in the test with CH1cisR, the IC50 stood at 34 ± 4 µM and the “resistance factor” value came out at 2.8. In the test with CH1, the 50% inhibitory concentration (IC50) stood at 12 ± 3 µM. In addition, in the test with calf thymus DNA, the “% IEC/adduct, frequency of interstrand crosslinks” value (“% IEC/adduct, frequency” for short) was found to be 13%; the “unwinding angle per adduct” value is 26.4°; the “t1/2 half time of the binding to calf thymus DNA” value (from here on “t1/2 half time of the binding”) is 20 min; the “ΔTm, 0.01M Na+” value is on record as 6.3 0.C. Moreover, in the test on calf thymus DNA, the “ΔTm, 0.2 M” value is −1.9 0.C and the “ΔΔεmax, maximum of the positive CD band at around 275 nm” value (“ΔΔεmax, maximum of the positive CD band” below) worked out at 0.01.
In the case of `C1CNCCN1.Cl.N.[Cl][Pt@SP1][Cl]` [Complex 16, cis-[PtCl2(NH3)(piperazine)].HCl], in the test with 41McisR, the “resistance factor” value worked out at 2.4 and the concentration for half-maximal inhibition (IC50) is 112 ± 12 µM. The same compound registered an IC50 with 41M of 46 ± 3 µM. Moreover, in the test with A2780cisR, the IC50 was determined as 25 ± 2 µM and the “resistance factor” value amounted to 2.5. The compound also had an IC50 in the test with A2780 of 10 ± 1 µM. For the same compound, in the test with CH1cisR, it took 56 ± 3 µM to reach half-maximal inhibition (IC50) and the “resistance factor” value is listed as 2.0. In the test with CH1, this compound yielded an IC50 of 28 ± 2 µM. In addition, in the test on calf thymus DNA, the “% IEC/adduct, frequency” value was 6%; the “unwinding angle per adduct” value stood at 13°; the “t1/2 half time of the binding” value was determined as 35 min; the “ΔTm, 0.01M Na+” value is reported as 3.5 0.C. The “ΔTm, 0.2 M” value in the test on calf thymus DNA is recorded as −4.5 0.C.
Consider `Cc1ccncc1.N.[Cl][Pt][Cl]` [cis-[PtCl2(NH3)(4-picoline)]] [reference compound], for which the IC50 in the test with C-26 cells (setting [1]) amounted to 5.1 ± 1.2 µM. Further, the IC50 in the test with C-26 cells (setting [2]) is 4.7 ± 2.4 µM. Besides, the half-inhibitory concentration (IC50) in the test on C-26 cells (setting [3]) was 3.7 ± 1.6 µM. Further, the IC50 with OV-1063 cells (setting [1]) worked out at 6 ± 2.2 µM. The IC50 in the test on OV-1063 cells (setting [2]) was found to be 5.1 ± 1.9 µM. Moreover, the concentration for half-maximal inhibition (IC50) with OV-1063 cells (setting [3]) amounted to 4 ± 1.7 µM. For the same compound, in the test with calf thymus DNA (setting [4]), the “t1/2 half time of the binding” value is reported as 21 min; the “% IEC/adduct, frequency” value came to 4%; the “unwinding angle per adduct” value turned out to be 12°; the “ΔTm, 0.01M Na+” value is recorded as “+1.6 0.C”. For the same compound, in the test with calf thymus DNA (setting [4]), the “ΔTm, 0.2 M” value is listed as −4.8 0.C and the “ΔΔεmax, maximum of the positive CD band” value is reported as 0.92.
Consider `C1CCNCC1.C1CCNCC1.[Cl][Pt][Cl]` [Complex 6, Trans-[PtCl2(piperidine)2]], for which half-maximal inhibition with CH1 (listed as trans-PtCl2(pip)2) (IC50) required 35 ± 2 µM.
Turning to “Trans-[PtCl2(piperidine)(piperazine)].HCl [Complex 12]”, the “resistance factor” value in the test with 41McisR was 3.2; with A2780cisR, 3.6; with CH1cisR, 3.9. Also, the half-maximal inhibitory concentration (IC50) in the test with 41McisR worked out at 118 ± 9 µM; in the test on 41M it was 37 ± 4 µM; with A2780cisR, 64 ± 5 µM; with A2780 it was 18 ± 2 µM; in the test with CH1cisR it was 85 ± 7 µM; with CH1 it was 22 ± 3 µM.
In the case of `C1CCNCC1.C1CCNCC1.[Cl][Pt][Cl]` [cis-PtCl2(pip)2, reference compound], the figures for the “resistance factor” value in the test on 41McisR, in the test on A2780cisR and with CH1cisR were 6, “(16.7)” and “(8)”, respectively. The IC50 was 300 ± 25 µM in the test on 41McisR; 50 ± 3 µM in the test on 41M; 250 ± 12 µM in the test on A2780cisR; 15 ± 2 µM in the test on A2780; 280 ± 12 µM in the test with CH1cisR; 32 ± 2 µM in the test with CH1.
As to trans-PtCl2(NH3)(4-pip)Cl2, the entries for the “resistance factor” value with 41McisR, in the test with A2780cisR and with CH1cisR were 5.5, 4.0 and “(6.3)”, respectively. For the same compound, the IC50 was 150 ± 8 µM with 41McisR; 27 ± 2 µM with 41M; 20 ± 2 µM with A2780cisR; 5 ± 0.7 µM in the test with A2780; 94 ± 6 µM with CH1cisR; 15 ± 2 µM with CH1.
On to `Cc1ccncc1.N.[Cl][Pt][Cl]` [trans-[PtCl2(NH3)(4-picoline)]] [reference compound], for which the half-maximal inhibitory concentration (IC50) in the test on C-26 cells (setting [1]) amounted to 12 ± 1.2 µM. In addition, the IC50 with C-26 cells (setting [2]) is 11 ± 2 µM. Besides, the half-inhibitory concentration (IC50) in the test with C-26 cells (setting [3]) stood at 11 ± 1.1 µM. In addition, the half-maximal inhibitory concentration (IC50) with OV-1063 cells (setting [1]) amounted to 18 ± 3.7 µM. Besides, the IC50 in the test on OV-1063 cells (setting [2]) amounted to 16 ± 3.5 µM. Further, in the test on OV-1063 cells (setting [3]), the IC50 was determined as 14 ± 2.3 µM. Besides, in the test on calf thymus DNA, the “% IEC/adduct, frequency” value was determined as 40%; the “unwinding angle per adduct” value worked out at 39.6°; the “t1/2 half time of the binding” value is on record as 50 min; the “ΔTm, 0.01M Na+” value is reported as “+7.2 0.C”. In the test on calf thymus DNA, the “ΔTm, 0.2 M” value was “+0.6 0.C” and the “ΔΔεmax, maximum of the positive CD band” value was −0.29.
In the case of “Trans-[PtCl2(isopropylamine)(piperazine)].HCl [Complex 9]”, the “resistance factor” value in the test on 41McisR is on record as 3.2; with A2780cisR, 2.1; with CH1cisR it was 5.0. Also, the IC50 with 41McisR came out at 122 ± 8 µM; in the test with 41M, 38 ± 3 µM; in the test on A2780cisR, 30 ± 2 µM; in the test with A2780, 14 ± 1 µM; in the test on CH1cisR, 50 ± 3 µM; in the test on CH1, 10 ± 1 µM.
With “Trans-[PtCl2(n-butylamine)(piperazine)].HCl [Complex 10]”, the “resistance factor” value in the test with 41McisR amounted to 1.5; with A2780cisR it was 1.8; in the test on CH1cisR, 1.1. For the same compound, the IC50 was determined as 48 ± 3 µM with 41McisR; 32 ± 5 µM in the test with 41M; 28 ± 2 µM with A2780cisR; 16 ± 2 µM with A2780; 19 ± 3 µM in the test on CH1cisR; 17 ± 2 µM in the test with CH1.
Turning to `C1CCNCC1.N.[Cl][Pt][Cl]` [Complex 7, cis-[PtCl2(NH3)(piperidine)]], in the test on 41McisR, the “resistance factor” value was “(4.9)” and the 50% inhibitory concentration (IC50) came out at 315 ± 24 µM. For the same compound, inhibition in the test with 41M was half-maximal at 64 ± 5 µM (IC50). In addition, in the test on A2780cisR, the IC50 is 234 ± 17 µM and the “resistance factor” value stood at 9. For the same compound, 26 ± 3 µM corresponded to half-maximal inhibition in the test with A2780 (IC50). Also, in the test on CH1cisR, the half-inhibitory concentration (IC50) is 263 ± 17 µM and the “resistance factor” value was “(7.3)”. In the test with CH1, this compound showed an IC50 of 36 ± 4 µM. For the same compound, the “t1/2 half time of the binding” value in the test with calf thymus DNA is 113 min. For the same compound, in the test on calf thymus DNA (setting [5]), the “% IEC/adduct, frequency” value came out at 5%; the “unwinding angle per adduct” value was found to be 13.2°; the “ΔTm, 0.01M Na+” value was −2.5 0.C; the “ΔTm, 0.2 M” value was −6.0 0.C. The “ΔΔεmax, maximum of the positive CD band” value in the test on calf thymus DNA (setting [5]) amounted to 0.93.

The values above are taken from patent US7122668B2, “Platinum complexes and their use in therapy” (priority 2002, dated 2006).
